Measurements as given in US10357533B2, “Drug for the effective control of acute and or chronic pain and a method for its administration” (PVP LABS PTE. LTD., priority 2016, dated 2019).
Where a SMILES comes first, the peptide text is derived from it. [ ]: non-standard residue; d: D form.

Experiments:
Type in all cases: in vivo
mice [1] = assay: Duration of analgesic effect in the tail flick test in mice
Method: (§1) This stage involved selecting the effective doses of peptide compound in the tail flick test in mice after a single subcutaneous administration of the substance at doses of 0.01, 0.05, 0.1, 0.5, 0.7, 1 and 5 mg/kg. Tail flick method is based on a spinal flexion reflex in response to a progressively increasing effect of thermal radiation on the surface of skin. A pain stimulus was applied to the tail locally, by the action of thermal radiation, using a TSE Systems analgesiometer (Germany). Stimulus intensity was set, corresponding to an increase in temperature from 30° C. to 60° C. over 13 seconds. The tail flick latency (TFL) of 13 seconds was used as the maximum allowable time of stimulation. The mice in test groups were given peptide compound, and control group mice were given the solvent (water for injections) by subcutaneous. Tail flick latency was evaluated 40 minutes after the administration of the study substance or solvent. The analysis of experimental results involved calculating the maximum possible effect (MPE).
The duration of analgesic effect of peptide compound was evaluated in the tail flick test in mice as described above.
Peptide compound was administered to mice subcutaneously at a doses of 0.5 mg/kg, 1.5 mg/kg and 4.5 mg/kg. The control group of animals was given a subcutaneous injection of the vehicle (water for injections). TFL test was evaluated in mice that received peptide compound at 30 minutes and at 1, 2, 4, 6, and 8 hours after dosing.

mice [2] = assay: Balancing on a horizontal rod test in mice
Method: The substance was injected intraperitoneally in identical weight amounts to laboratory animals in the experimental and control groups, respectively. […] The measurement was started 15 minutes after injection.
Animals were placed on a wooden rod with a diameter of 2 cm and 40 cm long, at a height of not less than 60 cm. Then we recorded the duration maintenance of equilibrium on the rod. We processed the results using single factor dispersal analysis ANOVA.

mice [3] = assay: Tail flick test in mice, dose-dependent analgesic effect
Method: as §1

rats = assay: Hot plate test in rats; details: for HPL, s (Mean ± SEM): hot plate 52° C.
Method: The “Hot Plate” test is based on the reflex that rat licking its' feet when the animal comes in contact with a hot surface. The device is a metal surface with a diameter of 30 cm whose temperature is controlled by software. The site is enclosed by a transparent fence with a height of 40 cm. The temperature of the metal pad was set at exactly 52° C. When placing the animal on the surface, you measure the time until the moment when the animal licks its' foot. When analgesics are administered, the time before the rat licks its' feet increases. The licking latency (HPL) of 40 seconds was used as the maximum allowable time of stimulation. The study was conducted on male rats weighing 160-180 g, 6 animals per dose.

mice [4] = assay: Acetic acid-induced writhing test in mice; details: for Number of writhings, n (Mean ± SEM): 15 minutes count
Method: The acetic acid-induced writhing test is a model of a chemical nociceptive stimulus applied by the intraperitoneal injection of acetic acid solution.
Intraperitoneal injection of substances that irritate serous membranes in mice induces distinctive movements, including contractions of abdominal muscles followed by muscle relaxation, extension of the hind limbs and curving of the back, known as writhing. Mice were given an intraperitoneal injection of 1% acetic acid at a dose of 0.1 mL per 10 g body weight. After the injection the mice were placed in transparent acrylic chambers and counted the number of writhings in each animal for the next 15 minutes. The analgesic effect was evaluated by a reduction in the number of writhings in mice that received the study drug relative to the control group. […] Writhing onset latency in mice was used as an additional parameter for evaluating the efficacy of the substance in the acetic acid-induced writhing test.

[5] = 0.05 mg/kg subcutaneous, 40 minutes
[6] = 0.1 mg/kg subcutaneous, 40 minutes
[7] = 0.5 mg/kg subcutaneous, 40 minutes
[8] = 0.7 mg/kg subcutaneous, 40 minutes
[9] = 1 mg/kg subcutaneous, 40 minutes
[10] = 5 mg/kg subcutaneous, 40 minutes

N=C(N)NCCC[C@@H](NC(=O)[C@@H](N)Cc1ccc(O)cc1)C(=O)N[C@@H](Cc1ccccc1)C(=O)NCC(N)=O [Peptide compound, H-Tyr-D-Arg-Phe-Gly-NH2] (H-Y[dR]FG-NH2)
MPE, % (Mean ± SEM) (mice [1]; 0.5 mg/kg subcutaneous, 0.5 hours): 45.6 ± 13.31%
MPE, % (Mean ± SEM) (mice [1]; 0.5 mg/kg subcutaneous, 1 hours): 49.9 ± 11.54%
MPE, % (Mean ± SEM) (mice [1]; 0.5 mg/kg subcutaneous, 2 hours): 15.5 ± 4.78%
MPE, % (Mean ± SEM) (mice [1]; 0.5 mg/kg subcutaneous, 4 hours): 6.3 ± 2.43%
MPE, % (Mean ± SEM) (mice [1]; 0.5 mg/kg subcutaneous, 6 hours): 6.3 ± 2.94%
MPE, % (Mean ± SEM) (mice [1]; 0.5 mg/kg subcutaneous, 8 hours): −2.6 ± 3.18%
MPE, % (Mean ± SEM) (mice [1]; 1.5 mg/kg subcutaneous, 0.5 hours): 97.2 ± 2.78%
MPE, % (Mean ± SEM) (mice [1]; 1.5 mg/kg subcutaneous, 1 hours): 62.7 ± 14.4%
MPE, % (Mean ± SEM) (mice [1]; 1.5 mg/kg subcutaneous, 2 hours): 33.4 ± 4.85%
MPE, % (Mean ± SEM) (mice [1]; 1.5 mg/kg subcutaneous, 4 hours): 25.6 ± 11.69%
MPE, % (Mean ± SEM) (mice [1]; 1.5 mg/kg subcutaneous, 6 hours): 4.6 ± 7.8%
MPE, % (Mean ± SEM) (mice [1]; 1.5 mg/kg subcutaneous, 8 hours): 5.3 ± 3.46%
MPE, % (Mean ± SEM) (mice [1]; 4.5 mg/kg subcutaneous, 0.5 hours): 100.0 ± 0.00%
MPE, % (Mean ± SEM) (mice [1]; 4.5 mg/kg subcutaneous, 1 hours): 100.0 ± 0.00%
MPE, % (Mean ± SEM) (mice [1]; 4.5 mg/kg subcutaneous, 2 hours): 100.0 ± 0.00%
MPE, % (Mean ± SEM) (mice [1]; 4.5 mg/kg subcutaneous, 4 hours): 49.9 ± 10.21%
MPE, % (Mean ± SEM) (mice [1]; 4.5 mg/kg subcutaneous, 6 hours): 6.5 ± 5.94%
MPE, % (Mean ± SEM) (mice [1]; 4.5 mg/kg subcutaneous, 8 hours): 2.6 ± 4.0%
maximum duration of the analgesic effect (mice [1]; after dosing with 1.5 mg/kg and 4.5 mg/kg): 4 h
reduced activity in horizontal movement on the rod (mice [2]; higher doses 20-100 mg/kg): 10-20%
maintaining balance on a horizontal rod, experimental vs control groups (mice [2]; intraperitoneally): did not observe significant differences
Proportion of the maximum possible effect (MPE), % (mice [3]; 0.01 mg/kg subcutaneous, 40 minutes): 18.7%
TFL, s (Mean ± SEM) (mice [3]; 0.01 mg/kg subcutaneous, 40 minutes after administration): 5.89 ± 0.19 s
Proportion of the maximum possible effect (MPE), % (mice [3]; [5]): 42.5%
TFL, s (Mean ± SEM) (mice [3]; [5]): 7.97 ± 0.78 s
Proportion of the maximum possible effect (MPE), % (mice [3]; [6]): 47.0%
TFL, s (Mean ± SEM) (mice [3]; [6]): 8.36 ± 0.68 s
Proportion of the maximum possible effect (MPE), % (mice [3]; [7]): 55.7%
TFL, s (Mean ± SEM) (mice [3]; [7]): 9.12 ± 0.92 s
Proportion of the maximum possible effect (MPE), % (mice [3]; [8]): 57.5%
TFL, s (Mean ± SEM) (mice [3]; [8]): 10.15 ± 0.74 s
Proportion of the maximum possible effect (MPE), % (mice [3]; [9]): 94.6%
TFL, s (Mean ± SEM) (mice [3]; [9]): 12.53 ± 0.24 s
Proportion of the maximum possible effect (MPE), % (mice [3]; [10]): 100%
TFL, s (Mean ± SEM) (mice [3]; [10]): 13.00 ± 0 s
higher level of activity in comparison with morphine (mice [3]; tail flick): 10-15 times
dose of morphine with close activity (mice [3]; tail flick, peptide compound 0.1 mg/kg dose): ~4 mg/kg
dose of morphine with close activity (mice [3]; tail flick, peptide compound 0.5 mg/kg dose): 7 to 8 mg/kg
dose at which the effect of full analgesia was observed (mice [3]; tail flick, subcutaneous): 1 mg/kg
Proportion of the maximum possible effect (MPE), % (rats; 0.1 mg/kg subcutaneous): 38.2%
HPL, s (Mean ± SEM) (rats; 0.1 mg/kg subcutaneous): 26.01 ± 8.8 s
Proportion of the maximum possible effect (MPE), % (rats; 5 mg/kg subcutaneous): 98.3%
HPL, s (Mean ± SEM) (rats; 5 mg/kg subcutaneous): 39.33 ± 1.63 s
dose at which the effect of full analgesia was observed (rats; hot plate): 5 mg/kg
higher level of activity in comparison with morphine (rats; hot plate): ~10 times
dose of morphine with corresponding analgesic efficacy (rats; hot plate, proposed drug 0.1 mg/kg): 5 mg/kg
increase in writhing onset latency relative to the control group, factor (mice [4]; 0.25 mg/kg): 2.6
reduction of visceral pain (number of writhings) relative to the control group, factor (mice [4]; 0.25 mg/kg): 2.2
% of mice w/o writhing (mice [4]; 0.25 mg/kg subcutaneous): 0%
Number of mice w/o writhing/number of mice in group (mice [4]; 0.25 mg/kg subcutaneous): 0/9
Writhing onset latency, s (Mean ± SEM) (mice [4]; 0.25 mg/kg subcutaneous): 397.2 ± 69.95 s
Number of writhings, n (Mean ± SEM) (mice [4]; 0.25 mg/kg subcutaneous 40 minutes before acetic acid): 40.7 ± 4.50 n
animals that exhibited writhing (mice [4]; 0.25 mg/kg subcutaneously): 100%
animals in which the pain response was observed (mice [4]; 0.5 mg/kg): 40.0%
increase in writhing onset latency relative to the control group, factor (mice [4]; 0.5 mg/kg): 4.1
reduction of visceral pain (number of writhings) relative to the control group, factor (mice [4]; 0.5 mg/kg): 31.8
% of mice w/o writhing (mice [4]; 0.5 mg/kg subcutaneous): 40.0%
Number of mice w/o writhing/number of mice in group (mice [4]; 0.5 mg/kg subcutaneous): 4/10
Writhing onset latency, s (Mean ± SEM) (mice [4]; 0.5 mg/kg subcutaneous): 632.5 ± 80.62 s
Number of writhings, n (Mean ± SEM) (mice [4]; 0.5 mg/kg subcutaneous 40 minutes before acetic acid): 2.8 ± 1.00 n
animals in which the pain response was observed (mice [4]; 1 mg/kg): 55.6%
increase in writhing onset latency relative to the control group, factor (mice [4]; 1 mg/kg): 4.9
reduction of visceral pain (number of writhings) relative to the control group, factor (mice [4]; 1 mg/kg): 74.2
% of mice w/o writhing (mice [4]; 1 mg/kg subcutaneous): 55.6%
Number of mice w/o writhing/number of mice in group (mice [4]; 1 mg/kg subcutaneous): 5/9
Writhing onset latency, s (Mean ± SEM) (mice [4]; 1 mg/kg subcutaneous): 762.8 ± 55.76 s
Number of writhings, n (Mean ± SEM) (mice [4]; 1 mg/kg subcutaneous 40 minutes before acetic acid): 1.2 ± 0.49 n
